Assays:
Echinochloa crusgalli [1] = test: Table 17 field trial, treatment at the 2 leaf stage: weed control; type: in vivo; conditions: 14 days after application
From the text: Field trial: Treatment at the 2 leaf stage, evaluation 14 days after the application.

Oryza sativa [2] = test: Table 10 greenhouse trial, treatment at the 1-2 leaf stage: rice damage; type: in vivo; conditions: greenhouse trial, 20 days after application
Experimental: (§1) Seeds or rhizome pieces of mono- and dicotyledonous weed plants are placed into sandy loam soil in plastic pots, covered with soil and grown in a greenhouse under good growth conditions (temperature, atmospheric humidity, water supply). Weeds which are encountered in the cultivation of rice are cultivated in pots in which the water level is up to 2 cm over the soil surface. Three weeks after sowing, the test plants are treated at the three-leaf stage. The active compound combinations according to the invention, formulated as wettable powders or emulsion concentrates, and, in parallel experiments, the correspondingly formulated individual active compounds are sprayed onto the green parts of the plants at different dosages using an amount of water of 300 to 600 l/ha (converted), and, after about 3 to 4 weeks of the test plants in the greenhouse under optimum growth conditions (temperature, atmospheric humidity, water supply), the effect of the preparations is evaluated visually in comparison to untreated controls. In the case of rice or weeds which are encountered in the cultivation of rice, the active compounds are also added directly to the water for irrigation (application analogous to the so-called granules application) or sprayed onto plants and added to the water for irrigation. The experiments were designed with several, up to five, repetitions. The herbicidal compositions according to the invention also have good herbicidal post-emergence activity against a broad spectrum of economically important weed grasses and broad-leaved weeds.
(§2) Greenhouse trial: Treatment at the 1-2 leaf stage, evaluation 20 days after the application.

Scirpus juncoides = test: Table 10 greenhouse trial, treatment at the 1-2 leaf stage: weed control; type: in vivo; conditions: 20 days after application
Experimental: as §1, §2

Leptochloa filiformis = test: Table 2a field trial, treatment at the 2-3 leaf stage weed grasses: weed control; type: in vivo; conditions: 28 days after application
Experimental: (§6) The examples mentioned below were carried out in the greenhouse, and in some instances, in field trials.

Echinochloa crusgalli [3] = test: Table 18 field trial, treatment at the 1-2 leaf stage: weed control; type: in vivo; conditions: 14 days after application
From the text: (§3) Field trial: Treatment at the 1-2 leaf stage, evaluation 14 days after the application.

Oryza sativa [4] = test: Table 18 field trial, treatment at the 1-2 leaf stage: rice damage; type: in vivo; conditions: 14 days after application
From the text: as §3

Oryza sativa [5] = test: Table 2a field trial, treatment at the 1-2 leaf stage rice: rice damage; conditions: 28 days after application
Experimental: as §6

Cyperus irria = test: Table 3 field trial, treatment at the 2 leaf stage weed grasses: weed control; type: in vivo; conditions: 28 days after application
Experimental: as §6

Eleusine indica = test: Table 2 field trial, treatment at the 2-3 leaf stage weed grasses: weed control; type: in vivo; conditions: 28 days after application
Experimental: as §6

Oryza sativa [6] = test: Table 2 field trial, treatment at the 1-2 leaf stage rice: rice damage; conditions: 28 days after application
Experimental: as §6

ECHCO = test: Table 2 field trial, treatment at the 2-3 leaf stage weed grasses: weed control; type: in vivo, Echinochloa colona; conditions: 28 days after application
Experimental: as §6

Oryza sativa [7] = test: Table 3 field trial, treatment at the 4-5 leaf stage (seed rice): rice damage; conditions: 28 days after application
Experimental: as §6

Scirpus maritimus = test: Table 15 greenhouse trial, treatment at the 2-3 leaf stage: weed control; type: in vivo; conditions: 20 days after application
Experimental: as §1

Oryza sativa [8] = test: Table 15 greenhouse trial, treatment at the 2-3 leaf stage: rice damage; type: in vivo; conditions: 20 days after application
Experimental: as §1

Oryza sativa [9] = test: Table 16 greenhouse trial, treatment at the 2-3 leaf stage: rice damage; type: in vivo; conditions: 20 days after application
Experimental: as §1
(§4) Greenhouse trail: Treatment at the 2-3 leaf stage, evaluation 20 days after the application.

Cyperus serotinus = test: Table 16 greenhouse trial, treatment at the 2-3 leaf stage: weed control; type: in vivo; conditions: 20 days after application
Experimental: as §1, §4

Oryza sativa [10] = test: Table 14 greenhouse trial, treatment at the 3-4 leaf stage: rice damage; type: in vivo; conditions: 21 days after application
Experimental: as §1
(§5) Greenhouse trial: Treatment at the 3-4 leaf stage, evaluation 21 days after the application.

Sagittaria pygmaea = test: Table 14 greenhouse trial, treatment at the 3-4 leaf stage: weed control; type: in vivo; conditions: 21 days after application
Experimental: as §1, §5

Cucumis dipsaceus = test: Table 1: weed control by A1*), safener C3-1) and combination; type: in vivo
Experimental: as §6

[11] = test system: Oryza sativa (paddy rice); test: Table 1: damage to paddy rice; type: in vivo
Experimental: as §6

## C#CCOc1cc(-n2nc(C(C)(C)C)oc2=O)c(Cl)cc1Cl [B51), 5-tert-butyl-3-[2,4-dichloro-5-(prop-2-ynyloxy)-phenyl]-1,3,4-oxadiazol-2(3H)-one]
Echinochloa crusgalli [1]; 25 g of ai/ha
  ECHCG % control: 37%
Echinochloa crusgalli [1]; 50 g of ai/ha
  ECHCG % control: 63%
Echinochloa crusgalli [1]; 100 g of ai/ha
  ECHCG % control: 63%
Echinochloa crusgalli [1]; 200 g of ai/ha
  ECHCG % control: 80%

## COc1cc(OC)nc(NC(=O)NS(=O)(=O)Cc2ccccc2C(=O)O)n1 [B58), 2-[[[[[(4,6-dimethoxy-2-pyrimidinyl)amino]carbonyl]-amino]sulfonyl]methyl]benzoic acid]
Oryza sativa [2]; 7.5 g of ai/ha
  ORYSW % damage: 0%
Oryza sativa [2]; 15 g of ai/ha
  ORYSW % damage: 0%
Oryza sativa [2]; 30 g of ai/ha
  ORYSW % damage: 2%
Oryza sativa [2]; 60 g of ai/ha
  ORYSW % damage: 5%
Scirpus juncoides; 7.5 g of ai/ha
  SCIJU % control: 35%
Scirpus juncoides; 15 g of ai/ha
  SCIJU % control: 40%
Scirpus juncoides; 30 g of ai/ha
  SCIJU % control: 55%
Scirpus juncoides; 60 g of ai/ha
  SCIJU % control: 60%

## COc1cc(OC)nc(NC(=O)NS(=O)(=O)c2c(C(=O)O)cnn2C)n1 [B59), 5-[[[[(4,6-dimethoxy-2-pyrimidinyl)amino]carbonyl]-amino]sulfonyl]-1-methyl-1H-pyrazol-4-carboxylic acid]
Oryza sativa [2]; 7.5 g of ai/ha
  ORYSW % damage: 0%
Oryza sativa [2]; 15 g of ai/ha
  ORYSW % damage: 0%
Oryza sativa [2]; 30 g of ai/ha
  ORYSW % damage: 2%
Scirpus juncoides; 7.5 g of ai/ha
  SCIJU % control: 50%
Scirpus juncoides; 15 g of ai/ha
  SCIJU % control: 55%
Scirpus juncoides; 30 g of ai/ha
  SCIJU % control: 60%

## CCOc1ccccc1OS(=O)(=O)NC(=O)Nc1nc(OC)cc(OC)n1 [B63a), ethoxysulfuron]
Leptochloa filiformis; 45 g of ai/ha
  LEFFI % control: 0%
Leptochloa filiformis; 60 g of ai/ha
  LEFFI % control: 0%
Echinochloa crusgalli [3]; 5 g of ai/ha
  ECHCG % control: 7%
Echinochloa crusgalli [3]; 10 g of ai/ha
  ECHCG % control: 7%
Oryza sativa [4]; 5 g of ai/ha
  ORYSW % damage: 7%
Oryza sativa [4]; 10 g of ai/ha
  ORYSW % damage: 7%
Oryza sativa [5]; 45 g of ai/ha
  ORYSW % damage: 10%
Oryza sativa [5]; 60 g of ai/ha
  ORYSW % damage: 10%
Cyperus irria; 22.5 g of ai/ha
  CYPIR % control: 60%
Cyperus irria; 45 g of ai/ha
  CYPIR % control: 95%
Eleusine indica; 45 g of ai/ha
  ELEIN % control: 0%
Eleusine indica; 60 g of ai/ha
  ELEIN % control: 0%
Oryza sativa [6]; 45 g of ai/ha
  ORYSW % damage: 10%
Oryza sativa [6]; 60 g of ai/ha
  ORYSW % damage: 10%
ECHCO; 45 g of ai/ha
  ECHCO % control: 0%
ECHCO; 60 g of ai/ha
  ECHCO % control: 0%
Oryza sativa [7]; 22.5 g of ai/ha
  ORYSW % damage: 0%
Oryza sativa [7]; 45 g of ai/ha
  ORYSW % damage: 0%

## COc1cc(OC)nc(NC(=O)NS(=O)(=O)c2c(-c3nnn(C)n3)cnn2C)n1 [B64), azimsulfuron]
Scirpus maritimus; 5 g of ai/ha
  SCIMA % control: 78%
Scirpus maritimus; 9 g of ai/ha
  SCIMA % control: 80%
Scirpus maritimus; 18 g of ai/ha
  SCIMA % control: 83%
Scirpus maritimus; 37 g of ai/ha
  SCIMA % control: 85%
Oryza sativa [8]; 5 g of ai/ha
  ORYSW % damage: 3%
Oryza sativa [8]; 9 g of ai/ha
  ORYSW % damage: 8%
Oryza sativa [8]; 18 g of ai/ha
  ORYSW % damage: 10%
Oryza sativa [8]; 37 g of ai/ha
  ORYSW % damage: 10%

## COc1cc(OC)nc(Oc2cccc(Oc3nc(OC)cc(OC)n3)c2C(=O)ON=C(c2ccccc2)c2ccccc2)n1 [B72), pyribenzoxim]
Oryza sativa [9]; 18.75 g of ai/ha
  ORYSW % damage: 3%
Oryza sativa [9]; 37.5 g of ai/ha
  ORYSW % damage: 8%
Oryza sativa [9]; 75 g of ai/ha
  ORYSW % damage: 8%
Cyperus serotinus; 18.75 g of ai/ha
  CYPSE % control: 25%
Cyperus serotinus; 37.5 g of ai/ha
  CYPSE % control: 35%
Cyperus serotinus; 75 g of ai/ha
  CYPSE % control: 60%

## CC1=C(c2ccccc2)C(=O)N(C(C)(C)c2cc(Cl)cc(Cl)c2)CO1 [B73), oxaziclomefone]
Oryza sativa [10]; 50 g of ai/ha
  ORYSW % damage: 0%
Oryza sativa [10]; 100 g of ai/ha
  ORYSW % damage: 0%
Oryza sativa [10]; 200 g of ai/ha
  ORYSW % damage: 5%
Sagittaria pygmaea; 50 g of ai/ha
  SAGPY % control: 10%
Sagittaria pygmaea; 100 g of ai/ha
  SAGPY % control: 15%
Sagittaria pygmaea; 200 g of ai/ha
  SAGPY % control: 20%

## CCOC(=O)C1=NOC(c2ccccc2)(c2ccccc2)C1 [C3-1), ethyl 5,5-diphenyl-2-isoxazoline-3-carboxylate]
Cucumis dipsaceus; 15 g of ai/ha
  CUMDI % control: 0%
Cucumis dipsaceus; 30 g of ai/ha
  CUMDI % control: 0%
Cucumis dipsaceus; 60 g of ai/ha
  CUMDI % control: 0%
[11]; 15 g of ai/ha
  ORYSW % damage: 0%
[11]; 30 g of ai/ha
  ORYSW % damage: 0%
[11]; 60 g of ai/ha
  ORYSW % damage: 0%

From patent US6864217B2, “Herbicidal compositions with substituted phenylsulfonylureas for controlling weeds in rice” (Hoechst Schering AgrEvo GmbH, priority 1998, dated 2005)
